{"source": "patent US8722065B2", "about": "“Lidocaine tape preparation” (priority 2007, dated 2014)", "assay": "Crystal precipitability of lidocaine in the tape preparation / ionic liquid", "assay_type": "physicochemical", "settings": "room temperature for several months", "method": "A content initially inducing the crystal precipitation of lidocaine was examined. […] The crystal precipitability and transdermal absorbability therefor were evaluated. Lidoderm (registered trade name, from Endo, lidocaine content: 5%) was used as a standard material. […]"}
{"smiles": "CC(O)C(=O)O.CCN(CC)CC(=O)Nc1c(C)cccc1C", "note": "[lactic acid salt of lidocaine]", "values": [{"measurement": "Crystal precipitation on storage", "result": "no crystal precipitation occurred"}]}
